In ChEMBL document CHEMBL5465560, “Selectivity Literature for EUbOPEN Chemogenomic Library” (2024):

Assays:
[1] = molecular target: Protein polybromo-1 (Homo sapiens) (UniProt Q86U86); test: Selectivity interaction (Human bromodomain panel (DSF assay)) EUB0000233b PBRM1
[2] = molecular target: T1, Ephrin type-B receptor 1 (Homo sapiens) (UniProt P54762); test: Selectivity interaction (KinomeScan (DiscoverX)) EUB0000045b EPHB1
T1 sequence (whole entry): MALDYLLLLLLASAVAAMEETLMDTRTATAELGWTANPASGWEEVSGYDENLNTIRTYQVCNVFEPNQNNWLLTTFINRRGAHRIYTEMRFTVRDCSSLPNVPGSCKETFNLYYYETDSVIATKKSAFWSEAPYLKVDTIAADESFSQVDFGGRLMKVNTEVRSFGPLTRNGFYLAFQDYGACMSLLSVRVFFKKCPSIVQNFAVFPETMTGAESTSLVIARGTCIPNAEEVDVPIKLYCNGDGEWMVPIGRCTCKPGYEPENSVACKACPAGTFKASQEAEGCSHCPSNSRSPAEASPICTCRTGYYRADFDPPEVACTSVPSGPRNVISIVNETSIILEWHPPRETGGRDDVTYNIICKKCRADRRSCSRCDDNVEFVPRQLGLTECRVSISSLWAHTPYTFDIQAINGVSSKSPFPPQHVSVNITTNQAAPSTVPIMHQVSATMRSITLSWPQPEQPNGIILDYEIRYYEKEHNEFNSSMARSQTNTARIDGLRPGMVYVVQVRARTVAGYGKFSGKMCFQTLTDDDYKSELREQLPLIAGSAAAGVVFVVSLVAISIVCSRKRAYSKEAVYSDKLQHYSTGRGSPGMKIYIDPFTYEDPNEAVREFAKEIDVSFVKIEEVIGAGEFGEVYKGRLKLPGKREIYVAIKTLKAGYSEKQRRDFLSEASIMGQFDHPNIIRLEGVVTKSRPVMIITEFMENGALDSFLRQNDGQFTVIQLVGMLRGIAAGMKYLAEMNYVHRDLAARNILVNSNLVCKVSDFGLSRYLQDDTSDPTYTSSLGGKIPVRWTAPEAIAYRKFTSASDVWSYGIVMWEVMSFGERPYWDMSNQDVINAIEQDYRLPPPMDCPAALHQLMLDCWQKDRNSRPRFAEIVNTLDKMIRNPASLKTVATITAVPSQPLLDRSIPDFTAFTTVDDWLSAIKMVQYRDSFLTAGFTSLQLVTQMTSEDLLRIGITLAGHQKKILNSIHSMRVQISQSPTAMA

[3] = molecular target: Histone-lysine N-methyltransferase KMT5B (Homo sapiens) (UniProt Q4FZB7); test: Selectivity interaction (Transferase panel (protein, RNA, and DNA methyltransferases. and EP300 (acetyltransferase))) EUB0000270b SUV420H1
[4] = molecular target: T2, Serine/threonine-protein kinase BRSK1 (Homo sapiens) (UniProt Q8TDC3); test: Selectivity interaction (Upstate Kinase Profiler service (Millipore)) EUB0000056c BRSK1; conditions: at 1 µM
T2 sequence (whole entry): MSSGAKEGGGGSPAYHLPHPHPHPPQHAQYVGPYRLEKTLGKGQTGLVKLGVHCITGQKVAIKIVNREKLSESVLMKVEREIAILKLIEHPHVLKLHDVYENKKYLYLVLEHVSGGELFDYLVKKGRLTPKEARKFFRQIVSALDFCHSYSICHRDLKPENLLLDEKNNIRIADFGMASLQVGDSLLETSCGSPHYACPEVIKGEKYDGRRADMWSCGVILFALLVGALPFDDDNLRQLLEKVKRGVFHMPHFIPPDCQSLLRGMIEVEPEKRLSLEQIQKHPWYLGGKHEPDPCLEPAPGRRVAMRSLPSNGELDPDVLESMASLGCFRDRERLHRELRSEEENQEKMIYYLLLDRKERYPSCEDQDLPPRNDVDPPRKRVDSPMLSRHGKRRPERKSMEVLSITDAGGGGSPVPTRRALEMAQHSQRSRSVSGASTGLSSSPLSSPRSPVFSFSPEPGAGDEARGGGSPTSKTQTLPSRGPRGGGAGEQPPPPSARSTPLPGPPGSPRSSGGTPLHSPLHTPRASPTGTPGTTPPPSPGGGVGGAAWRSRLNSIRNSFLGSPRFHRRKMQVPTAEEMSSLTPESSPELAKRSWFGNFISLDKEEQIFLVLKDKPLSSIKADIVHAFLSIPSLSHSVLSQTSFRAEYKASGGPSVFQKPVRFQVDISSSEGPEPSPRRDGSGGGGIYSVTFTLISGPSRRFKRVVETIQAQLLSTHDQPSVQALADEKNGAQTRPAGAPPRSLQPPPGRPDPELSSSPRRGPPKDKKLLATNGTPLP

Histone-lysine N-methyltransferase KMT5B (Homo sapiens), sequence (Q4FZB7 whole entry, looked up): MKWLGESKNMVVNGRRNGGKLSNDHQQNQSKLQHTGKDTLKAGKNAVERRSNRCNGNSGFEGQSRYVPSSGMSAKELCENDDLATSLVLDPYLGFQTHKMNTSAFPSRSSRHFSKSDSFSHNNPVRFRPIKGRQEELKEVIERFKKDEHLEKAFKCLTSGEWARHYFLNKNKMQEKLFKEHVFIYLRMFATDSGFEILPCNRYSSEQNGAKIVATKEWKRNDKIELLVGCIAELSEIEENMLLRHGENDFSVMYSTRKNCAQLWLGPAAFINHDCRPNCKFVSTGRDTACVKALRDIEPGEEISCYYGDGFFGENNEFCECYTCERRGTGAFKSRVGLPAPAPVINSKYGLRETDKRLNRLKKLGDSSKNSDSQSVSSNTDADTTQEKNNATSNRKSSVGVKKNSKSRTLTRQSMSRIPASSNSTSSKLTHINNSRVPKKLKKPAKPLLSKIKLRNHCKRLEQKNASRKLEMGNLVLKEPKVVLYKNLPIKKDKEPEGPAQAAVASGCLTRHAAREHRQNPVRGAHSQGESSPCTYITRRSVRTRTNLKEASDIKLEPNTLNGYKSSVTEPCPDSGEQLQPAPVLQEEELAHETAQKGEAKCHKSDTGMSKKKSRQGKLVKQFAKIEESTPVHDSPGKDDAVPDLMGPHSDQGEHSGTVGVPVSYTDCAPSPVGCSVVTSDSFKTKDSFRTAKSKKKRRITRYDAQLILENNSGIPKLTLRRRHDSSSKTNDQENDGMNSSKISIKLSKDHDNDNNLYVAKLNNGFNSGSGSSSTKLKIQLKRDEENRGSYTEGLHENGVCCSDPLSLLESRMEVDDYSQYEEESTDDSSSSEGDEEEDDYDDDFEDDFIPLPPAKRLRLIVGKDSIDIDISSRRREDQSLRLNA
Protein polybromo-1 (Homo sapiens), sequence (Q86U86 whole entry): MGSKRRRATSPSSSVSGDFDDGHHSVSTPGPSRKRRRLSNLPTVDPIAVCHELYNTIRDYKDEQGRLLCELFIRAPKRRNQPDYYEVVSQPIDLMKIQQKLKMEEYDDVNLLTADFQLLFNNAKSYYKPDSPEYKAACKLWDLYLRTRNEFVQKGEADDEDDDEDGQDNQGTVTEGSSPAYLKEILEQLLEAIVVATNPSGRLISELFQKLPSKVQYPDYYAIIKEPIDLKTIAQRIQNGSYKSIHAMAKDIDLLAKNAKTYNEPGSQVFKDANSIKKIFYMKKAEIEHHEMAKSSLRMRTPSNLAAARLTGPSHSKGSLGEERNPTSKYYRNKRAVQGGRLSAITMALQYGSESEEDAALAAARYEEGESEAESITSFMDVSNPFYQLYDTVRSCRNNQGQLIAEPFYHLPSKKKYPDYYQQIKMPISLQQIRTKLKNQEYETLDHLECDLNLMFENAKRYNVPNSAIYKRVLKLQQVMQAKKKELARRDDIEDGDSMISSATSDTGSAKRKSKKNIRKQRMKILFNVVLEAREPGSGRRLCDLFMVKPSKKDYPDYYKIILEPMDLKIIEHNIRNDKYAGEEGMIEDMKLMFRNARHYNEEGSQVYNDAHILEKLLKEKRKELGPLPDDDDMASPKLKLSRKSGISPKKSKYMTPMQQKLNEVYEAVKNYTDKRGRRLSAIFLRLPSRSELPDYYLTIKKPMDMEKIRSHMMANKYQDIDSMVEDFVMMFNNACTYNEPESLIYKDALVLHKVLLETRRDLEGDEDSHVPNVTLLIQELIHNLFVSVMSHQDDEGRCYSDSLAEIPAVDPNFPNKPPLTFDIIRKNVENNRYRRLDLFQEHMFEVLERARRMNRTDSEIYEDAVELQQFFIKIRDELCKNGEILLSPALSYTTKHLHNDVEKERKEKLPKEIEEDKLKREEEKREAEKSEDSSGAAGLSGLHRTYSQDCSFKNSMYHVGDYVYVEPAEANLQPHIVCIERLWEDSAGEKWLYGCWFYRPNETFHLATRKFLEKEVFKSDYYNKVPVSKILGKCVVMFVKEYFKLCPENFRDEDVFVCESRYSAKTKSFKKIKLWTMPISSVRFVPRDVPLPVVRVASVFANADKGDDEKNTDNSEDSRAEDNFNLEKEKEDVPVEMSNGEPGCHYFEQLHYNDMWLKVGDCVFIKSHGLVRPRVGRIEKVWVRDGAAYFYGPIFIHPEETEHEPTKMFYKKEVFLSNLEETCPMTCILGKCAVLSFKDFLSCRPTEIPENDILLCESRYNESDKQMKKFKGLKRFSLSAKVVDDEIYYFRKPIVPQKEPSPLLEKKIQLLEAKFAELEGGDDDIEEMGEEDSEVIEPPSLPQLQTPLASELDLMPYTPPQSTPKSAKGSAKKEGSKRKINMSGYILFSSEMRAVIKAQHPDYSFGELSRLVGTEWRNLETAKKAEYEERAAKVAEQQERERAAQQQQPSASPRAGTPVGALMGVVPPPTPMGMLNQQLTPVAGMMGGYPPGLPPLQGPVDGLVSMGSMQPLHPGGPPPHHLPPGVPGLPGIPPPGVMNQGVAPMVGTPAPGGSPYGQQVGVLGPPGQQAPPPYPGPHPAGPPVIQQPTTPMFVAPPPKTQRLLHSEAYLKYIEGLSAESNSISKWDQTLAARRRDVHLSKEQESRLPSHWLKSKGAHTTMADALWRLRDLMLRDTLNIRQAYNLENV

CN(C)CCCOc1ccc(-c2cc(NCCCn3cccn3)nc(S(C)(=O)=O)n2)cc1
dTM [1]: < 2 K

C=CC(=O)Nc1cc(-n2c(=O)ccc3cnc4ccc(-c5ccc(NS(C)(=O)=O)cc5)cc4c32)ccc1C
% of control ([2]; at 1 µM): 100% | % of control ([2]; at 10 µM): 100%

Cc1cc(CN)cc(C)c1-c1ncn(C)c1-c1cncn1C
% activity ([3]; at 1 µM): > 90% | % activity ([3]; at 10 µM): > 80%

Cc1ccc(-c2ccc3c(ccc4sc5c(c43)NC[C@@H](C)NC5=O)n2)cn1
% of inhibition [4]: 80%
